According to PubChem BioAssay AID602121 (Johns Hopkins Ion Channel Center, 2011):
The source made the active and inactive calls.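 Rule for the calls: active = opens the KCNQ1 potassium channel at some tested dose and gives a fittable dose response curve; inactive = the rest.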

target: Potassium voltage-gated channel subfamily KQT member 1 (Homo sapiens) (UniProt P51787); test: human KCNQ1 channel activators, SAR follow-up, automated patch clamp, CHO cells, set 2 (AID 602121); details: at 30 µM (top of the series)
Sequence (P51787 whole entry, looked up): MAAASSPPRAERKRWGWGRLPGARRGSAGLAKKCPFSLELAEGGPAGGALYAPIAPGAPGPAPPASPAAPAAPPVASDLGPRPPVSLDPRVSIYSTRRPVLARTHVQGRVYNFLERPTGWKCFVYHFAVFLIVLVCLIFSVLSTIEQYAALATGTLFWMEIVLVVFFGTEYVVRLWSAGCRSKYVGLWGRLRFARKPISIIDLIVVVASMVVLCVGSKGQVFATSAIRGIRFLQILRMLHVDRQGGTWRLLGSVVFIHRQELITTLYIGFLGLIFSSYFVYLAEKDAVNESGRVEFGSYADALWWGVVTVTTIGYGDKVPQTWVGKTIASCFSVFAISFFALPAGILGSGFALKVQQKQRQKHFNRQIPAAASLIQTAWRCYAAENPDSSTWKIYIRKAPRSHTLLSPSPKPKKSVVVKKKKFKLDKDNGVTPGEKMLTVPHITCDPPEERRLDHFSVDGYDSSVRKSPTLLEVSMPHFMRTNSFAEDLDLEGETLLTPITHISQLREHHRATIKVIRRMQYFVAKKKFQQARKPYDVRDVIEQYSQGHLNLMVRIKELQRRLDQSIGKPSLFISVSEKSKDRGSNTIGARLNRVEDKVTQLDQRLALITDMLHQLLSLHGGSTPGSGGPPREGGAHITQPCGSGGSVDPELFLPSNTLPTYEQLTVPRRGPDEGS

Q: Which current activation does the source give for COC(=O)c1cccc(NC(=O)[C@H]2CCCCN2S(=O)(=O)c2ccc(C)cc2)c1 here?
A: inactive

Q: How did the current activation turn out when COc1cccc(NC(=O)[C@H]2CCCCN2S(=O)(=O)c2ccc(C)cc2)c1 was run?
A: inactive

Q: For Cc1ccc(S(=O)(=O)N2CCCC[C@@H]2C(=O)Nc2cccc(Cl)n2)cc1, which current activation is on record?
A: inactive

Q: How did the current activation turn out when Cc1ccc(S(=O)(=O)N2CCCC[C@@H]2C(=O)Nc2ccc(C)c(Br)c2)cc1 was run?
A: inactive

Q: Cc1ccc(S(=O)(=O)N2CCCC[C@@H]2C(=O)Nc2ccccc2)cc1 was tested. Which current activation did it give?
A: inactive

Q: How did the current activation turn out when Cc1ccc(S(=O)(=O)N2CCCC[C@@H]2C(=O)Nc2ccncc2)cc1 was run?
A: inactive

Q: With Cc1ccc(S(=O)(=O)N2CCCC[C@@H]2C(=O)Nc2cccc([N+](=O)[O-])c2)cc1 as the molecule, how does the current activation read?
A: inactive

Q: How did the current activation turn out when CCc1cccc(NC(=O)[C@H]2CCCCN2S(=O)(=O)c2ccc(C)cc2)n1 was run?
A: inactive

same assay, conditions: automated patch clamp current

Q: With Cc1ccc(S(=O)(=O)N2CCCC[C@@H]2C(=O)Nc2ccc(F)c(C)c2)cc1 as the molecule, how does the EC50 read?
A: 3350 nM

Q: Cc1ccc(S(=O)(=O)N2CCCC[C@@H]2C(=O)Nc2ccc(C)c(C)c2)cc1 was tested. Which EC50 did it give?
A: 2250 nM

Q: With Cc1ccc(S(=O)(=O)N2CCCC[C@@H]2C(=O)Nc2cccc(C(F)(F)F)c2)cc1 as the molecule, how does the EC50 read?
A: 3240 nM

Q: Which EC50 does the source give for COc1ccc(-c2csc(NC(=O)[C@H]3CCCCN3S(=O)(=O)c3ccc4c(c3)OCO4)n2)cc1 here?
A: 778 nM
